Values of other authors, collected in patent publication US20060069075A1, “Methods for treating dry eye” (priority 2001, published 2006).

Test system: human conjunctival epithelial cells
Conditions: background statement, no data given

Compound: CCCCC[C@H](O)/C=C/C=C\C/C=C\C/C=C\CCCC(=O)O [15-HETE]
- secretion of mucin-1 (MUC-1): increase the secretion of mucin-1 (MUC-1)
